Measured values as given in patent US7091158B2, “Substituted thienyl(amino)sulphonylureas” (Bayer Aktiengesellschaft, priority 1999, dated 2006).

Assays:
weeds [1] = assay: Post-emergence test, activity against weeds; assay type: in vivo
Method: (§1) To produce a suitable preparation of active compound, one part by weight of active compound is mixed with the stated amount of solvent, the stated amount of emulsifier is added and the concentrate is diluted with water to the desired concentration.
(§2) Test plants which have a height of 5–15 cm are sprayed with the preparation of active compound such that the particular amounts of active compound desired are applied per unit area. The concentration of the spray liquor is chosen so that the particular amounts of active compound desired are applied in 1000 l of water/ha.
(§3) After three weeks, the degree of damage to the plants is rated in % damage in comparison to the development of the untreated control.
(§4) The figures denote: • 0%=no effect (like untreated control) • 100%=total destruction

Stellaria [2] = assay: Post-emergence test/greenhouse; assay type: in vivo; settings: after three weeks, vs untreated control
Method: as §1, §2, §3, §4

Veronica [3] = assay: Post-emergence test/greenhouse; assay type: in vivo; settings: 15 g of ai/ha, after three weeks, vs untreated control
Method: as §1, §2, §3, §4

Abutilon [4] = assay: Post-emergence test/greenhouse; assay type: in vivo; settings: after three weeks, vs untreated control
Method: as §1, §2, §3, §4

Echinochloa = assay: Post-emergence test/greenhouse; assay type: in vivo; settings: 15 g of ai/ha, after three weeks, vs untreated control
Method: as §1, §2, §3, §4

Viola [5] = assay: Post-emergence test/greenhouse; assay type: in vivo; settings: after three weeks, vs untreated control
Method: as §1, §2, §3, §4

Alopecurus [6] = assay: Post-emergence test/greenhouse; assay type: in vivo; settings: after three weeks, vs untreated control
Method: as §1, §2, §3, §4

Lolium = assay: Post-emergence test/greenhouse; assay type: in vivo; settings: 15 g of ai/ha, after three weeks, vs untreated control
Method: as §1, §2, §3, §4

weeds [7] = assay: Pre-emergence test, activity against weeds; assay type: in vivo
Method: (§5) To produce a suitable preparation of active compound, 1 part by weight of active compound is mixed with the stated amount of solvent, the stated amount of emulsifier is added and the concentrate is diluted with water to the desired concentration.
(§6) Seeds of the test plants are sown in normal soil. After about 24 hours, the soil is sprayed with the preparation of active compound such that the particular amount of active compound desired is applied per unit area. The concentration of the spray liquor is chosen so that the particular amount of active compound desired is applied in 1000 litres of water per hectare.
as §3, §4

Stellaria [8] = assay: Pre-emergence test/greenhouse; assay type: in vivo; settings: after three weeks, vs untreated control
Method: as §5, §6, §3, §4

Matricaria [9] = assay: Pre-emergence test/greenhouse; assay type: in vivo; settings: after three weeks, vs untreated control
Method: as §5, §6, §3, §4

Veronica [10] = assay: Pre-emergence test/greenhouse; assay type: in vivo; settings: 4 g of ai/ha, after three weeks, vs untreated control
Method: as §5, §6, §3, §4

Soya = assay: Pre-emergence test/greenhouse; assay type: in vivo; settings: 4 g of ai/ha, after three weeks, vs untreated control
Method: as §5, §6, §3, §4

Viola [11] = assay: Pre-emergence test/greenhouse; assay type: in vivo; settings: after three weeks, vs untreated control
Method: as §5, §6, §3, §4

Amaranthus [12] = assay: Post-emergence test/greenhouse; assay type: in vivo; settings: after three weeks, vs untreated control
Method: as §1, §2, §3, §4

Matricaria [13] = assay: Post-emergence test/greenhouse; assay type: in vivo; settings: 125 g of ai/ha, after three weeks, vs untreated control
Method: as §1, §2, §3, §4

Wheat = assay: Post-emergence test/greenhouse; assay type: in vivo; settings: 125 g of ai/ha, after three weeks, vs untreated control
Method: as §1, §2, §3, §4

Xanthium = assay: Post-emergence test/greenhouse; assay type: in vivo; settings: Table B3, post-emergence, 125 g of ai/ha, after three weeks, vs untreated control
Method: as §1, §2, §3, §4

Amaranthus [14] = assay: Pre-emergence test/greenhouse; assay type: in vivo; settings: after three weeks, vs untreated control
Method: as §5, §6, §3, §4

Maize = assay: Pre-emergence test/greenhouse; assay type: in vivo; settings: after three weeks, vs untreated control
Method: as §5, §6, §3, §4

Abutilon [15] = assay: Pre-emergence test/greenhouse; assay type: in vivo; settings: 250 g of ai/ha, after three weeks, vs untreated control
Method: as §5, §6, §3, §4

Cyperus = assay: Pre-emergence test/greenhouse; assay type: in vivo; settings: after three weeks, vs untreated control
Method: as §5, §6, §3, §4

Sinapis = assay: Pre-emergence test/greenhouse; assay type: in vivo; settings: 250 g of ai/ha, after three weeks, vs untreated control
Method: as §5, §6, §3, §4

Alopecurus [16] = assay: Pre-emergence test/greenhouse; assay type: in vivo; settings: after three weeks, vs untreated control
Method: as §5, §6, §3, §4

Chenopodium [17] = assay: Post-emergence test/greenhouse; assay type: in vivo; settings: Table B4, post-emergence, 125 g of ai/ha, after three weeks, vs untreated control
Method: as §1, §2, §3, §4

Setaria = assay: Post-emergence test/greenhouse; assay type: in vivo; settings: Table B4, post-emergence, 125 g of ai/ha, after three weeks, vs untreated control
Method: as §1, §2, §3, §4

Ipomoea = assay: Post-emergence test/greenhouse; assay type: in vivo; settings: Table B4, post-emergence, 125 g of ai/ha, after three weeks, vs untreated control
Method: as §1, §2, §3, §4

Chenopodium [18] = assay: Pre-emergence test/greenhouse; assay type: in vivo; settings: 125 g of ai/ha, after three weeks, vs untreated control
Method: as §5, §6, §3, §4

Barley = assay: Post-emergence test/greenhouse; assay type: in vivo; settings: 4 g of ai/ha, after three weeks, vs untreated control
Method: as §1, §2, §3, §4

Cotton = assay: Pre-emergence test/greenhouse; assay type: in vivo; settings: 15 g of ai/ha, after three weeks, vs untreated control
Method: as §5, §6, §3, §4

[19] = Table B3, post-emergence, 125 g of ai/ha
[20] = Table A6, pre-emergence, 250 g of ai/ha
[21] = Table A4, pre-emergence, 250 g of ai/ha
[22] = Table A5, pre-emergence, 250 g of ai/ha

Question: For `COC(=O)c1csc(C)c1S(=O)(=O)NC(=O)Nc1nc(C)nc(OC)n1` [Example 1, N-(4-methoxy-6-methyl-1,3,5-triazin-2-yl)-N′-(4-methoxycarbonyl-2-methyl-thien-3-yl-sulphonyl)-urea], which activity against weeds (weeds [1]) is on record?
Answer: very strong activity

Question: And the “degree of damage to the plants, Stellaria” value (Stellaria [2]; 15 g of ai/ha)?
Answer: 100%

Question: And the “degree of damage to the plants, Veronica” value (Veronica [3])?
Answer: 100%

Question: And the “degree of damage to the plants, Abutilon” value (Abutilon [4]; 15 g of ai/ha)?
Answer: 100%

Question: And the “degree of damage to the plants, Echinochloa” value (Echinochloa)?
Answer: 100%

Question: What about the “degree of damage to the plants, Viola” value (Viola [5]; post-emergence, 15 g of ai/ha) of the same compound?
Answer: 100%

Question: And the “degree of damage to the plants, Alopecurus” value (Alopecurus [6]; 15 g of ai/ha)?
Answer: 100%

Question: What about the “degree of damage to the plants, Lolium” value (Lolium) of the same compound?
Answer: 100%

Question: What about the melting point of the same compound?
Answer: 195 °C

Question: And the activity against weeds (weeds [7])?
Answer: very strong activity

Question: What about the “degree of damage to the plants, Stellaria” value (Stellaria [8]; 4 g of ai/ha) of the same compound?
Answer: 95%

Question: And the “degree of damage to the plants, Matricaria” value (“degree of damage … Matricaria” below) (Matricaria [9]; 4 g of ai/ha)?
Answer: 95%

Question: And the “degree of damage to the plants, Veronica” value (Veronica [10])?
Answer: 95%

Question: And the “degree of damage to the plants, Soya” value (Soya)?
Answer: 10%

Question: What about the “degree of damage to the plants, Viola” value (Viola [11]; 4 g of ai/ha) of the same compound?
Answer: 100%

Question: What does the source list for `COC(=O)c1csc(C)c1NS(=O)(=O)NC(=O)Nc1nc(OC)cc(OC)n1` [Example 2, N-(4,6-dimethoxy-pyrimidin-2-yl)-N′-(4-methoxycarbonyl-2-methyl-thien-3-yl-amino-sulphonyl)-urea]?
Answer: activity against weeds (weeds [1]): very strong activity; degree of damage to the plants, Amaranthus (Amaranthus [12]; [19]): 100%; degree of damage to the plants, Matricaria (Matricaria [13]; Table B3, post-emergence): 100%; degree of damage to the plants, Wheat (Wheat; Table B3, post-emergence): 0%; degree of damage to the plants, Xanthium (Xanthium): 95%; degree of damage to the plants, Viola (Viola [5]; [19]): 100%; melting point: 174 °C; activity against weeds (weeds [7]): very strong activity; degree of damage to the plants, Amaranthus (Amaranthus [14]; [20]): 95%; degree of damage to the plants, Maize (Maize; [20]): 20%; degree of damage to the plants, Abutilon (Abutilon [15]; Table A6, pre-emergence): 90%; degree of damage to the plants, Cyperus (Cyperus; [20]): 95%; degree of damage to the plants, Sinapis (Sinapis; Table A6, pre-emergence): 95%

Question: Which activity against weeds (weeds [7]) does the source give for `CCCc1scc(C(=O)OCC)c1NS(=O)(=O)NC(=O)Nc1nc(OC)cc(OC)n1` [Example 3] here?
Answer: very strong activity

Question: What about the “degree of damage to the plants, Amaranthus” value (Amaranthus [14]; [21]) of the same compound?
Answer: 90%

Question: And the “degree of damage to the plants, Abutilon” value (Abutilon [15]; Table A4, pre-emergence)?
Answer: 80%

Question: And the “degree of damage to the plants, Alopecurus” value (Alopecurus [16]; [21])?
Answer: 70%

Question: What about the “degree of damage to the plants, Sinapis” value (Sinapis; Table A4, pre-emergence) of the same compound?
Answer: 90%

Question: Which results are given for `CCOC(=O)c1csc(C(C)C)c1NS(=O)(=O)NC(=O)Nc1nc(OC)cc(OC)n1` [Example 4]?
Answer: activity against weeds (weeds [7]): very strong activity; degree of damage to the plants, Amaranthus (Amaranthus [14]; [22]): 90%; degree of damage to the plants, Abutilon (Abutilon [15]; Table A5, pre-emergence): 95%; degree of damage to the plants, Cyperus (Cyperus; [22]): 90%; degree of damage to the plants, Alopecurus (Alopecurus [16]; [22]): 100%; degree of damage to the plants, Sinapis (Sinapis; Table A5, pre-emergence): 90%

Question: For `CCc1scc(C(=O)OC)c1NS(=O)(=O)NC(=O)Nc1nc(OC)cc(OC)n1` [Example 5], which activity against weeds (weeds [1]) is on record?
Answer: very strong activity

Question: And the “degree of damage to the plants, Chenopodium” value (Chenopodium [17])?
Answer: 100%

Question: What about the “degree of damage to the plants, Setaria” value (Setaria) of the same compound?
Answer: 90%

Question: What about the “degree of damage … Matricaria” value (Matricaria [13]; Table B4, post-emergence) of the same compound?
Answer: 100%

Question: What about the “degree of damage to the plants, Wheat” value (Wheat; Table B4, post-emergence) of the same compound?
Answer: 20%

Question: And the “degree of damage to the plants, Ipomoea” value (Ipomoea)?
Answer: 100%

Question: And the activity against weeds (weeds [7])?
Answer: very strong activity

Question: What about the “degree of damage to the plants, Chenopodium” value (Chenopodium [18]) of the same compound?
Answer: 95%

Question: And the “degree of damage … Matricaria” value (Matricaria [9]; 125 g of ai/ha)?
Answer: 100%

Question: What about the “degree of damage to the plants, Maize” value (Maize; pre-emergence, 125 g of ai/ha) of the same compound?
Answer: 20%

Question: And the “degree of damage to the plants, Cyperus” value (Cyperus; pre-emergence, 125 g of ai/ha)?
Answer: 95%

Question: What about the “degree of damage to the plants, Viola” value (Viola [11]; 125 g of ai/ha) of the same compound?
Answer: 95%

Question: What does the source list for `COC(=O)c1csc(C)c1S(=O)(=O)NC(=O)Nc1nc(OC)cc(OC)n1` [Example 6]?
Answer: activity against weeds (weeds [1]): very strong activity; degree of damage to the plants, Stellaria (Stellaria [2]; 4 g of ai/ha): 95%; degree of damage to the plants, Amaranthus (Amaranthus [12]; post-emergence, 4 g of ai/ha): 100%; degree of damage to the plants, Barley (Barley): 20%; degree of damage to the plants, Abutilon (Abutilon [4]; 4 g of ai/ha): 100%; degree of damage to the plants, Alopecurus (Alopecurus [6]; 4 g of ai/ha): 90%; activity against weeds (weeds [7]): very strong activity; degree of damage to the plants, Stellaria (Stellaria [8]; 15 g of ai/ha): 90%; degree of damage to the plants, Amaranthus (Amaranthus [14]; pre-emergence, 15 g of ai/ha): 90%; degree of damage to the plants, Cotton (Cotton): 0%; degree of damage to the plants, Viola (Viola [11]; 15 g of ai/ha): 100%; degree of damage to the plants, Alopecurus (Alopecurus [16]; pre-emergence, 15 g of ai/ha): 80%
